The text below walks through data of patent US11999699B2, “Substituted pyrazole amides” (GRUENENTHAL GMBH, priority 2021, dated 2024).

In the assay the target is T1, human NaV1.8 (Homo sapiens, UniProt Q9Y5Y9).
T1 construct: The following NaV1.8 recombinant cell line was used for recordings: HEK-NaV1.8 (NM 006514.1); expressed in transfected cells; host or cells: HEK (recombinant cell line HEK-NaV1.8)
Kind of assay: Electrophysiology: automated whole-cell voltage-clamp (patch clamp, Qube384) recordings of sodium currents in HEK-NaV1.8 cells. It is filed as cell-based. Particulars: potency data either taken from inactivated or resting state, read-out: Potency category (human NaV1.8 IC50). The method, then:
Electrophysiology: Voltage-Clamp Recordings
The following NaV1.8 recombinant cell line was used for recordings: HEK-NaV1.8 (NM 006514.1) with in (NM 018400.3).
Sodium currents were measured using the patch clamp technique in the whole-cell configuration using the Qube384 (Sophion A/S, Copenhagen, Denmark) automated voltage clamp platform. “Multi hole” plates were used for the cell line expressing NaV1.8 while “single hole” plates were used for the recombinant cell lines expressing the other subtypes. Appropriate filters (for minimum seal resistance and minimum current size) and series resistance compensation (for high quality sodium channel recordings) were applied. Data was collected at ambient room temperature.
The recording extracellular solution contained (in mM): NaCl 145 mM, KCl 4 mM, CaCl2 2 mM, MgCl2 1 mM, HEPES 10 mM, Glucose 10 mM, pH 7.4 (NaOH). The intracellular recording solution contained (in mM): CsF 120 mM, CsCl 20 mM, NaCl 10 mM, EGTA 10 mM, HEPES 10 mM, pH 7.2 (CsOH). Currents were recorded at 25 kHz sampling frequency and filtered at 5 kHz. Series resistance compensation was applied at 65%.
Vehicle (VEH) is the control condition where cells are exposed to 0.3% DMSO without compound. All runs include VEH controls being exposed to the same voltage protocols to assess non-compound related phenomena such as run down and then used to isolate compound dependent effects on currents.
To check for state-dependence inhibition, the following voltage-sequence was applied every 20 seconds:
From a resting membrane potential of −120 mV, the first test pulse (P1; 20 ms to −10 mV) was applied to check for channels in the Resting State followed by a brief recovery (20 ms to −120 mV), then holding the membrane voltage to V112 (4 seconds at voltage to obtain half the channel at Rest and half Inactivated) with a subsequent second test pulse (P2; 20 ms to −10 mV) to check for channels in the Inactivated State, followed by another brief recovery (20 ms to −120 mV) and a final third test pulse (P3; 20 ms to −10 mV) to check for recovered channels.
To check for frequency-dependent inhibition, a 10 Hz protocol and a 20 Hz protocol were applied; namely,
From a resting membrane potential of −120 mV, 40-pulses (10 ms to −10 mV) was applied at 10 Hz (at 100 ms between pulses) and then at 20 Hz (at 50 ms between pulses).
Each parameter was recorded (P1, P2, P3, P40 from 10 Hz and P40 from 20 Hz) during a control period (lasting 5 minutes) when establishing the baseline and during compound period (lasting ˜12 minutes) when test compound (or vehicle) was applied. For each parameter, the value at the end of the compound period was normalized to the vehicle baseline; as follows
To adjust for any variance in the Na^+ current signal during the compound period (owing to cumulative inactivation independent of compound or shifts in biophysics over time), a dedicated segment of the recording wells in each 384 plate were dedicated to having only vehicle exposure. These vehicle-only recordings were used to correct for any apparent “run-up” or “run-down” in the experiment.
The adjusted inhibition was calculated as follows: […]
Percent inhibition was determined and IC50 values were calculated using a 4 parameter logistic model within XLFit Software (IDBS, Boston MA):
[formula] where A and B are the maximal and minimum inhibition respectively, C is the IC50 concentration and D is the (Hill) slope.
The potency data was either taken from inactivated or resting state.
(Patch clamp records ionic current or voltage across a cell membrane.)

Bounds are passed on as bounds.

T1 sequence (Q9Y5Y9 whole entry): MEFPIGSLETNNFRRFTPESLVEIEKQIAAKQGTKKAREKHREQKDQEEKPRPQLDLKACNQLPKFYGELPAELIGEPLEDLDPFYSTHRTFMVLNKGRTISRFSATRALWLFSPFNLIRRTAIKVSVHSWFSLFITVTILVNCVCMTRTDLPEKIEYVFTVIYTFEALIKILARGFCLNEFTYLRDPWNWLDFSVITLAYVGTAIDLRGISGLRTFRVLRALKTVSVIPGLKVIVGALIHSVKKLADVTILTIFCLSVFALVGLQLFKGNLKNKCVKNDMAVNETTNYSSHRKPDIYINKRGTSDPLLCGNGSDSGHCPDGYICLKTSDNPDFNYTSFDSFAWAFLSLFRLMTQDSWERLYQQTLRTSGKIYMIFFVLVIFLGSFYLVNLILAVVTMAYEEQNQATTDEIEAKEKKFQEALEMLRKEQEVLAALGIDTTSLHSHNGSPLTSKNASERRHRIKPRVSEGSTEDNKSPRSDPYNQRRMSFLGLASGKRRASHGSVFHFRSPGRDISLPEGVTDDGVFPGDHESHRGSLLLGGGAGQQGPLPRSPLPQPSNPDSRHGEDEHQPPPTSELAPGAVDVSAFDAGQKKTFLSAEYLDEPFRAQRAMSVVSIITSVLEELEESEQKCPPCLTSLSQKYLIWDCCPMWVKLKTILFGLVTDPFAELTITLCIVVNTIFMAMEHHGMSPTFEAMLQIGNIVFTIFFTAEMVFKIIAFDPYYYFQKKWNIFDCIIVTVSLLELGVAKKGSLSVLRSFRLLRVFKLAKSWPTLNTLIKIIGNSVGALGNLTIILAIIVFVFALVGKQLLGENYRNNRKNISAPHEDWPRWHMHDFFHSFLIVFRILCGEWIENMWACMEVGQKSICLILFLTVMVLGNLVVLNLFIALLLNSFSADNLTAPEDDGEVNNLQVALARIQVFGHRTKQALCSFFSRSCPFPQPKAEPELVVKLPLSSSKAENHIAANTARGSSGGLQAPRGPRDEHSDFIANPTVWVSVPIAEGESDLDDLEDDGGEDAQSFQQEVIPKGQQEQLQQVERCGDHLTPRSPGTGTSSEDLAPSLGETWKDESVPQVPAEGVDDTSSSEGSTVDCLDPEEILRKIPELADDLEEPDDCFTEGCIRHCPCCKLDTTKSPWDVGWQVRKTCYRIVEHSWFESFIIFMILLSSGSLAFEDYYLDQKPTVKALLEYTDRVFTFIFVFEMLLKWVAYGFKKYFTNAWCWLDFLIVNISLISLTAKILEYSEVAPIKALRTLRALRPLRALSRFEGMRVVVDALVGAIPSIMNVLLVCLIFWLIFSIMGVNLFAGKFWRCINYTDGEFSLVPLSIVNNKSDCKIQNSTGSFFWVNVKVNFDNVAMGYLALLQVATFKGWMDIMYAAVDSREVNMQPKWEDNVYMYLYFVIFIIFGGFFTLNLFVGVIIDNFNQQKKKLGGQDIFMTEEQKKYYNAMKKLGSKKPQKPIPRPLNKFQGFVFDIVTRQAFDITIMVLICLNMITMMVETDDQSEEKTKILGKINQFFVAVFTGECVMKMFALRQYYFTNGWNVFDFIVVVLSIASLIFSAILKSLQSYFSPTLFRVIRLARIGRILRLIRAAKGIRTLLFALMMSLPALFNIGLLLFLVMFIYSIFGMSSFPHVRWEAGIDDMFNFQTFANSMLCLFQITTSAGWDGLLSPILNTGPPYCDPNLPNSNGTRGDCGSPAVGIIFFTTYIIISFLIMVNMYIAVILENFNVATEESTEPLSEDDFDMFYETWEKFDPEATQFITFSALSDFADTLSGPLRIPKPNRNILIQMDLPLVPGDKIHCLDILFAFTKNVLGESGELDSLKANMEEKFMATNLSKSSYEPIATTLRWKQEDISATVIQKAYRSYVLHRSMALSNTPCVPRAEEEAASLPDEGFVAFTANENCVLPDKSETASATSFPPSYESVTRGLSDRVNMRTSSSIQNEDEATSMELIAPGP
T1 sequence (Q9NY72 23-215 partner): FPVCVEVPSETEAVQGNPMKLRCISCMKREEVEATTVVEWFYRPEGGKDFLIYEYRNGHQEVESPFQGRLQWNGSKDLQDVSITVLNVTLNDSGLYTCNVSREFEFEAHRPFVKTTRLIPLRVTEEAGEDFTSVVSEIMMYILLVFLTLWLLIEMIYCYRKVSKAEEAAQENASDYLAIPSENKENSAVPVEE

Take `NC(=O)c1cc(NC(=O)c2c(C(F)(F)F)c(C3CC3)nn2C[C@@H]2CCO[C@H]2C(F)(F)F)ccn1` (racemic) [SC-147c]: the IC50 (in general, the concentration needed to halve the response being measured) was at most 100 nM.

For `CS(=O)(=O)c1cc(NC(=O)c2c(C(F)(F)F)c(C3CC3)nn2C[C@@H]2CCO[C@H]2C(F)(F)F)ccn1` (racemic) [SC-150c], the IC50 was at most 100 nM.

With `NC(=O)c1cc(NC(=O)c2c(C(F)(F)F)c(OCC3CC3)nn2CC2CCC(F)(F)C2)ccn1` (racemic) [SC-157, 4-(3-(cyclopropylmethoxy)-1-((3,3-difluorocyclopentyl)methyl)-4-(trifluoromethyl)-1H-pyrazole-5-ca±oxamido)picolinamide], the IC50 was at most 100 nM.

On to `Cc1c(C(C)(F)F)nn(CC2CC(F)(F)CC2C(F)(F)F)c1C(=O)Nc1ccnc(C(N)=O)c1` (racemic) [SC-217, 4-(1-((4,4-difluoro-2-(trifluoromethyl)cyclopentyl)methyl)-3-(1,1-difluoroethyl)-4-methyl-1H-pyrazole-5-carboxamido)picolinamide], for which the IC50 was at most 100 nM.

With `CS(=O)(=O)c1cc(NC(=O)c2c(C(F)(F)F)c(OC(F)F)nn2CC2CCC(F)(F)C2)ccn1` (racemic) [SC-293, 1-((3,3-difluorocyclopentyl)methyl)-3-(difluoromethoxy)-N-(2-(methylsulfonyl)pyridin-4-yl)-4-(trifluoromethyl)-1H-pyrazole-5-carboxamide], the IC50 was at most 100 nM.

`Cc1c(C(C)(F)F)nn(C[C@@H]2C[C@@H]2C(F)F)c1C(=O)Nc1ccnc(C(N)=O)c1` (relative stereo) [SC-206, 4-(3-(1,1-difluoroethyl)-1-((2-(difluoromethyl)cyclopropyl)methyl)-4-methyl-lH-pyrazole-5-carboxamido)picolinamide]: the 50% inhibitory concentration (IC50) lay within 100 to 1000 nM.

`COCCOC[C@@H]1CCCC[C@@H]1Cn1nc(C(C)(F)F)c(C)c1C(=O)Nc1ccnc(C(N)=O)c1` (relative stereo) [SC-223, 4-(3-(1,1-difluoroethyl)-1-((2-((2-methoxyethoxy)methyl)cyclohexyl)methyl)-4-methyl-1H-pyrazole-5-ca±oxamido)picolinamide]: the IC50 was at most 100 nM.

Take `Cc1c(C(F)(F)F)nn(CC2CCC(F)(F)C2)c1C(=O)Nc1ccnc(C(N)=O)c1` (single isomer, unassigned) [SC-118a]: the half-inhibitory concentration (IC50) was at most 100 nM.

Regarding `Cc1c(C(F)(F)F)nn(CC2CCC(F)(F)C2)c1C(=O)Nc1ccnc(C(N)=O)c1` (single isomer, unassigned) [SC-118b], the IC50 was at most 100 nM.

With `NC(=O)c1cc(NC(=O)c2c(C(F)(F)F)c(C3CC3)nn2CC2CCC(F)(F)C2)ccn1` (single isomer, unassigned) [SC-129a], the IC50 was at most 100 nM.

Take `NC(=O)c1cc(NC(=O)c2c(C(F)(F)F)c(C3CC3)nn2CC2CCC(F)(F)C2)ccn1` (single isomer, unassigned) [SC-129b]: the IC50 is at most 100 nM.

As for `NC(=O)c1cc(NC(=O)c2c(C(F)(F)F)c(C3CC3)nn2CC2CCCOC2)ccn1` (single isomer, unassigned) [SC-145a, 4-(3-Cyclopropyl-1-((tetrahydro-2H-pyran-3-yl)methyl)-4-(trifluoromethyl)-1H-pyrazole-5-carboxamido)picolinamide], the IC50 is at most 100 nM.

On to `NC(=O)c1cc(NC(=O)c2c(C(F)(F)F)c(C3CC3)nn2CC2CCCOC2)ccn1` (single isomer, unassigned) [SC-145b, 4-(3-Cyclopropyl-1-((tetrahydro-2H-pyran-3-yl)methyl)-4-(trifluoromethyl)-1H-pyrazole-5-carboxamido)picolinamide], for which the IC50 was at most 100 nM.

As for `NC(=O)c1cc(NC(=O)c2c(C(F)(F)F)c(C3CC3)nn2C[C@@H]2CCO[C@@H]2C(F)(F)F)ccn1` (single isomer, unassigned) [SC-147a], the IC50 is at most 100 nM.

As for `NC(=O)c1cc(NC(=O)c2c(C(F)(F)F)c(C3CC3)nn2C[C@@H]2CCO[C@@H]2C(F)(F)F)ccn1` (single isomer, unassigned) [SC-147b], the IC50 is at most 100 nM.

Regarding `NC(=O)c1cc(NC(=O)c2c(C(F)(F)F)c(C3CC3)nn2C[C@@H]2CO[C@H](C(F)(F)F)C2)ccn1` (single isomer, unassigned) [SC-148a], the IC50 is at most 100 nM.

For the compound `NC(=O)c1cc(NC(=O)c2c(C(F)(F)F)c(C3CC3)nn2C[C@@H]2CO[C@H](C(F)(F)F)C2)ccn1` (single isomer, unassigned) [SC-148b], the IC50 was at most 100 nM.

On to `CC(F)(F)c1nn(CC2CCC(F)(F)C2)c(C(=O)Nc2ccnc(C(N)=O)c2)c1Cl` (single isomer, unassigned) [SC-149a], for which the IC50 was at most 100 nM.

As to `CC(F)(F)c1nn(CC2CCC(F)(F)C2)c(C(=O)Nc2ccnc(C(N)=O)c2)c1Cl` (single isomer, unassigned) [SC-149b], the half-maximal inhibitory concentration (IC50) was at most 100 nM.

In the case of `CS(=O)(=O)c1cc(NC(=O)c2c(C(F)(F)F)c(C3CC3)nn2C[C@@H]2CCO[C@@H]2C(F)(F)F)ccn1` (single isomer, unassigned) [SC-150a], the IC50 was at most 100 nM.

Consider `CS(=O)(=O)c1cc(NC(=O)c2c(C(F)(F)F)c(C3CC3)nn2C[C@@H]2CCO[C@@H]2C(F)(F)F)ccn1` (single isomer, unassigned) [SC-150b], for which the IC50 was at most 100 nM.

Take `NC(=O)c1cc(NC(=O)c2c(C(F)(F)F)c(C3CC3)nn2CC2CCC2(F)F)ccn1` (single isomer, unassigned) [SC-154a, 4-(3-cyclopropyl-1-((2,2-difluorocyclobutyl)methyl)-4-(trifluoromethyl)-1H-pyrazole-5-carboxamido)picolinamide]: the IC50 was at most 100 nM.

On to `NC(=O)c1cc(NC(=O)c2c(C(F)(F)F)c(C3CC3)nn2CC2CCC2(F)F)ccn1` (single isomer, unassigned) [SC-154b, 4-(3-cyclopropyl-1-((2,2-difluorocyclobutyl)methyl)-4-(trifluoromethyl)-1H-pyrazole-5-carboxamido)picolinamide], for which the half-inhibitory concentration (IC50) was at most 100 nM.

As to `NC(=O)c1cc(NC(=O)c2c(Cl)c(C(F)(F)F)nn2CC2CCC(F)(F)C2)ccn1` (single isomer, unassigned) [SC-160a], the half-maximal inhibitory concentration (IC50) is at most 100 nM.

Regarding `NC(=O)c1cc(NC(=O)c2c(Cl)c(C(F)(F)F)nn2CC2CCC(F)(F)C2)ccn1` (single isomer, unassigned) [SC-160b], the IC50 was at most 100 nM.

In the case of `Cc1c(C(C)(F)F)nn(CC2C[C@H]2C(F)(F)F)c1C(=O)Nc1ccnc(C(N)=O)c1` (single isomer, unassigned) [SC-204a], the IC50 is at most 100 nM.

In the case of `Cc1c(C(C)(F)F)nn(C[C@H]2C[C@@H]2C(F)(F)F)c1C(=O)Nc1ccnc(C(N)=O)c1` (single isomer, unassigned) [SC-204b], the IC50 is at most 100 nM.

As for `Cc1c(C(C)(F)F)nn(CC2(C)CCC(F)(F)C2)c1C(=O)Nc1ccnc(S(N)(=O)=O)c1` (single isomer, unassigned) [SC-212a], the IC50 was at most 100 nM.

Take `Cc1c(C(C)(F)F)nn(C[C@@]2(C)CCC(F)(F)C2)c1C(=O)Nc1ccnc(S(N)(=O)=O)c1` (single isomer, unassigned) [SC-212b]: the IC50 is at most 100 nM.

For the compound `Cc1c(C(C)(F)F)nn(CC2(C)CCC(F)(F)C2)c1C(=O)Nc1ccnc(C(N)=O)c1` (single isomer, unassigned) [SC-214a], the IC50 was at most 100 nM.

For the compound `Cc1c(C(C)(F)F)nn(CC2(C)CCC(F)(F)C2)c1C(=O)Nc1ccnc(C(N)=O)c1` (single isomer, unassigned) [SC-214b], the IC50 was at most 100 nM.

In the case of `NC(=O)c1cc(NC(=O)c2c(C(F)(F)F)c(C3CC3)nn2CC2CC(OC(F)(F)F)C2)ccn1` (single isomer, unassigned) [SC-219a], the IC50 is at most 100 nM.

With `NC(=O)c1cc(NC(=O)c2c(C(F)(F)F)c(C3CC3)nn2CC2CC(OC(F)(F)F)C2)ccn1` (single isomer, unassigned) [SC-219b], the IC50 was at most 100 nM.
